Results on 24 compounds are retold here after US6451814B1, “Heterocyclic β-3 adrenergic receptor agonists” (Wyeth, priority 2000, dated 2002).

In the test the target is T1, human β3-adrenergic receptor (Homo sapiens, UniProt P13945).
T1 construct: Full length β3 AR clones (402 amino acids) containing the last 6 amino acids of hβ3—AR are prepared; expressed in transfected cells; host or cells: CHO cells
Nature of the test: cAMP response (SPA kit) in CHO cells transfected with human β3 adrenergic receptor. To be noted: for IA(β3): maximal response of compound compared to maximal response of isoproterenol at 10^-5 M, CHO cells, human β3-AR; for pEC50: read-out: EC50(β3). Type of test: cell-based.

Where [1] appears, read: CHO cells expressing human β3-AR, 10^-9 M to 10^-5 M, 30 min at 37° C., cAMP by SPA.

pEC50: −log10 of the molar value. “And” between values parts separate entries of the source, which are not always exact repeats. Equal values may be shown once. Read-outs that look alike come from different tables or passages of the source.

T1 sequence (P13945 whole entry): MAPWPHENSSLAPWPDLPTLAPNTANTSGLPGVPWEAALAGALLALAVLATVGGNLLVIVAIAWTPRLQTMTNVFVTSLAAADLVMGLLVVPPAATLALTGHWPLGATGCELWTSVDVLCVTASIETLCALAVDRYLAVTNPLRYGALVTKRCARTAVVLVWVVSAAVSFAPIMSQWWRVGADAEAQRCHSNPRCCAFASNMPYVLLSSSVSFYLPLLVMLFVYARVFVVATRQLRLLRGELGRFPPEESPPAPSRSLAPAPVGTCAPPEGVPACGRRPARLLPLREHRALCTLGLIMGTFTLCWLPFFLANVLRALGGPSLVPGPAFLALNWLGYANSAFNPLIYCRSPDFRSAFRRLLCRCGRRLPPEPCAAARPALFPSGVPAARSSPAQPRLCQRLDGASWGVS

In the case of `CCCCCCCCNC(=O)N1CCC(Nc2ccc(CCNC[C@H](O)COc3ccc(N)nc3)cc2)CC1` [Example 5, 4-(4-{2-[(2S)-3-(6-Amino-pyridin-3-yloxy)-2-hydroxy-propylamino]-ethyl}-phenylamino)-piperidine-1-carboxylic Acid Octylamide], the “IA(β3)” value turned out to be 0.68. With `CCCCCCCCNC(=O)N1CCC(Nc2ccc(CCNC[C@H](O)c3cccc(Cl)c3)cc2)CC1` [Example 36, 4-(4-{2-[(2R)-2-(3-Chloro-phenyl)-2-hydroxy-ethylamino]-ethyl}-phenylamino)-piperidine-1-carboxylic Acid Octylamide], the “IA(β3)” value was 0.77. Regarding `COc1c(C(=O)N2CCC(Nc3ccc(CCNC[C@H](O)COc4ccc(O)cc4)cc3)CC2)sc2ccccc12` [Example 97, [4-(4-{2-[(2S)-2-Hydroxy-3-(4-hydroxy-phenoxy)-propylamino]-ethyl}-phenylamino)-piperidin-1-yl]-(3-methoxy-benzo[b]thiophen-2-yl)-methanone], the “IA(β3)” value was found to be 0.79. Further, the pEC50 under setting [1] was 7.47. Take `CN(C)C(=O)Oc1ccc(CNC(=O)N2CCC(Nc3ccc(CCNC[C@H](O)COc4ccc(O)cc4)cc3)CC2)c(F)c1` [Example 84, Dimethyl-carbamic Acid 3-fluoro-4-({[4-(4-{2-[(2S)-2-hydroxy-3-(4-hydroxy-phenoxy)-propylamino]-ethyl}-phenlamino)-piperidine-1-carbonyl]-amino}-methyl)-phenyl Ester]: the “IA(β3)” value stood at 0.75. The EC50 (EC50(β3, μM), CHO cells expressing human β3-AR, 10^-9 M to 10^-5 M, 30 min at 37° C., cAMP by SPA) came out at 0.096 µM. In the case of `O=C(OCc1cc(F)ccc1F)N1CCC(Nc2ccc(CCNC[C@H](O)COc3ccc(O)cc3)cc2)CC1` [Example 122, 4-(4-{2-[(2S)-2-Hydroxy-3-(4-hydroxy-phenoxy)-propylamino]-ethyl}-phenylamino)-piperidine-1-carboxylic Acid 2,5-difluoro-benzyl Ester], the “IA(β3)” value is reported as 0.81. Further, the pEC50 under setting [1] is 7.00. In the same order, the values of `CCNC(=O)N1CCC(Nc2ccc(CCNC[C@H](O)COc3ccc(O)cc3)cc2)CC1` [Example 10, 4-(4-{2-[(2S)-2-Hydroxy-3-(4-hydroxy-phenoxy)-propylamino]-ethyl}-phenylamino)-piperidine-1-carboxylic Acid Ethylamide] are 0.85 and 7.37. In the same order, the values of `COC(=O)[C@@H]1CCCN1C(=O)N1CCC(Nc2ccc(CCNC[C@H](O)c3ccc(O)c(NS(C)(=O)=O)c3)cc2)CC1` [Example 77, 1-[[4-[[4-[2-[[(2R)-2-Hydroxy-2-[4-hydroxy[(methylsulfonyl)amino]phenyl]ethyl]amino]ethyl]phenyl]amino]-1-piperidinyl]carbonyl]-L-proline, Methyl Ester] are 0.99 and 7.55. In the same order, the values of `CC(=O)Nc1nc(C)c(S(=O)(=O)N2CCC(Nc3ccc(CCNC[C@H](O)c4ccc(O)c(NS(C)(=O)=O)c4)cc3)CC2)s1` [Example 115, N-(5-{[4-(4-{2-[((2R)-2-hydroxy-2-{4-hydroxy-3-[(methylsulfonyl)amino]phenyl}-ethyl)amino]ethyl}anilino)piperidin-1-yl]sulfonyl}-4-methyl-1,3-thiazol-2-yl)acetamide] are 0.97 and 7.89. `O=C(NCc1ccc(F)cc1)N1CCC(S(=O)(=O)c2ccc(CCNC[C@H](O)COc3ccc(O)cc3)cc2)CC1` [Example 45, 4-(4-{2-[(2S)-2-Hydroxy-3-(4-hydroxy-phenoxy)-propylamino]-ethyl}-benzenesulfonyl)-piperidine-1-carboxylic Acid 4-fluoro-benzylamide]: the “IA(β3)” value amounted to 1.07. Besides, the pEC50 under setting [1] was 7.19.

Consider `O=C(NCc1ccc(F)cc1)N1CCC(Nc2ccc(CCNC[C@H](O)COc3ccc(O)cc3)cc2)CC1` [Example 1, 4-(4-{2-[(2S)-2-Hydroxy-3-(4-hydroxy-phenoxy)-propylamino]-ethyl}-phenylamino)-piperidine-1-carboxylic Acid 4-fluoro-benzylamide], for which the “IA(β3)” value was 0.95 and 0.71 and 0.91. The pEC50 under setting [1] was 7.49 and 7.44 and 7.30.

In the case of `CC(=O)Nc1ccc(S(=O)(=O)N2CCC(Nc3ccc(CCNC[C@H](O)COc4ccc(O)cc4)cc3)CC2)cc1` [Example 114, N-{4-[4-(4-{2-[(2S)-2-Hydroxy-3-(4-hydroxy-phenoxy)-propylamino]-ethyl}-phenylamino)-piperidine-1-sulfonyl]-phenyl}-acetamide], the “IA(β3)” value came out at 1.1. Further, the pEC50 under setting [1] was 7.48.

For the compound `COc1ccc2[nH]c(C(=O)N3CCC(Nc4ccc(CCNCC(O)COc5ccc(O)cc5)cc4)CC3)cc2c1` (stereo not drawn) [Example 94, [4-(4-{2-[2-Hydroxy-3-(4-hydroxy-phenoxy)-propylamino]-ethyl}-phenylamino)-piperidin-1-yl]-(5-methoxy-1H-indol-2-yl)-methanone], the “IA(β3)” value was 0.59 and 0.78. In addition, under setting [1], the pEC50 was 8.00 and 7.27. As for `CNC(=O)N1CCC(Nc2ccc(CCNC[C@H](O)COc3ccc(O)cc3)cc2)CC1` [Example 9, 4-(4-{2-[(2S)-2-Hydroxy-3-(4-hydroxy-phenoxy)-propylamino]-ethyl}-phenylamino)-piperidine-1-carboxylic Acid Methylamide], the “IA(β3)” value is on record as 0.85. As for `CCOC(=O)c1ccc(N2CCC(Nc3ccc(CCNC[C@H](O)c4ccc(O)c(NS(C)(=O)=O)c4)cc3)CC2)cc1` [Example 120, 4-[4-(4-{2-[(2R)-2-Hydroxy-2-(4-hydroxy-3-methanesulfonylamino-phenyl)-ethylamino]-ethyl}-phenylamino)-piperidin-1-yl]-benzoic Acid Ethyl Ester], the “IA(β3)” value came to 1.1. Besides, the pEC50 under setting [1] was 7.60. As for `CCOC(=O)C1CCCN(C(=O)N2CCC(Nc3ccc(CCNC[C@H](O)c4ccc(O)c(NS(C)(=O)=O)c4)cc3)CC2)C1` (stereo partly drawn) [Example 78, 1-[[4-[[4-[2-[[(2R)-2-Hydroxy-2-[4-hydroxy-3-[(methylsulfonyl)amino]phenyl]ethyl]amino]ethyl]phenyl]amino]-1-piperidinyl]carbonyl]-3-piperidine Carboxylic Acid, Ethyl Ester], the “IA(β3)” value is 1. For `COc1cccc(CNC(=O)N2CCC(Nc3ccc(CCNC[C@H](O)COc4ccc(O)cc4)cc3)CC2)c1` [Example 79, 4-(4-{2-[(2S)-2-Hydroxy-3-(4-hydroxy-phenoxy)-propylamino]-ethyl}-phenylamino)-piperidine-1-carboxylic acid 3-methoxy-benzylamide], the “IA(β3)” value came out at 0.8. Also, the pEC50 under setting [1] is 7.39. In the same order, the values of `CCN(CC)C(=O)CCNC(=O)N1CCC(Nc2ccc(CCNC[C@H](O)COc3ccc(O)cc3)cc2)CC1` [Example 89, 4-(4-{2-[(2S)-2-Hydroxy-3-(4-hydroxy-phenoxy)-propylamino]-ethyl}-phenylamino)-piperidine-1-carboxylic Acid (2-diethylcarbamoyl-ethyl)-amide] are 0.83 and 7.03. The matching figures for `CS(=O)(=O)Nc1cc([C@@H](O)CNCCc2ccc(NC3CCN(C(=O)N4CCC(C(=O)O)CC4)CC3)cc2)ccc1O` [Example 52, 1-[4-(4-{2-[(2R)-2-Hydroxy-2-(4-hydroxy-3-methanesulfonylamino-phenyl)-ethylamino]-ethyl}-phenylamino)-piperidine-1-carbonyl]-piperidine-4-carboxylic Acid]: 0.82 and 7.16.

As to `O=C(NCc1ccc(F)cc1)N1CCC(Nc2ccc(CCNC[C@H](O)COc3cccc(O)c3)cc2)CC1` [Example 85, 4-(4-{2-[(2S)-2-Hydroxy-3-(3-hydroxy-phenoxy)-propylamino]-ethyl}-phenylamino)-piperidine-1-carboxylic Acid 4-fluoro-benzylamide], the “IA(β3)” value stood at 0.82. Also, the pEC50 under setting [1] is 8.52. Take “4-(4-{2-[(2S)-2-Hydroxy-3-(4-hydroxy-phenoxy)-propylamino]-ethyl}-phenylamino)-piperidine-1-carboxylic Acid 4-fluoro-benzylamide [Example 53]”: the “IA(β3)” value was 1.17 and 1.5. `O=C(NCc1ccc(F)cc1F)N1CCC(Nc2ccc(CCNC[C@H](O)COc3ccc(O)cc3)cc2)CC1` [Example 80, 4-(4-{2-[(2S)-2-Hydroxy-3-(4-hydroxy-phenoxy)-propylamino]-ethyl}-phenylamino)-piperidine-1-carboxylic acid 2,4-difluoro-benzylamide]: the “IA(β3)” value was found to be 0.84. `O=C(CCNC(=O)N1CCC(Nc2ccc(CCNC[C@H](O)COc3ccc(O)cc3)cc2)CC1)Nc1ccc(F)cc1` [Example 81, 4-(4-{2-[(2S)-2-Hydroxy-3-(4-hydroxy-phenoxy)-propylamino]-ethyl}-phenylamino)-piperidine-1-carboxylic Acid [2-(4-fluoro-phenylcarbamoyl)-ethyl]-amide]: the “IA(β3)” value stood at 1. The negative-log EC50 (pEC50) under setting [1] is 7.68. In the same order, the values of `CCCCCCCCNC(=O)N1CCC(C(=O)N2CCC(Nc3ccc(CCNC[C@H](O)COc4ccc(O)cc4)cc3)CC2)CC1` [Example 92, 4-[4-(4-{2-[(2S)-2-Hydroxy-3-(4-hydroxy-phenoxy)-propylamino]-ethyl}-phenylamino)-piperidine-1-carbonyl]-piperidine-1-carboxylic Acidoctylamide] are 0.92 and 8.00. For `Cc1ccsc1C(=O)N1CCC(Nc2ccc(CCNC[C@H](O)COc3ccc(O)cc3)cc2)CC1` [Example 100, [4-(4-{2-[(2S)-2-Hydroxy-3-(4-hydroxy-phenoxy)-propylamino]-ethyl}-phenylamino)-piperidin-1-yl]-(3-methyl-thiophen-2-yl)-methanone], the “IA(β3)” value was 0.98. The pEC50 under setting [1] was 7.80.
